The test system of one assay is CD94/NKG2C. Put plainly: CD94/NKG2C tetramer and dextramer staining of yeast-displayed peptide-HLA-E. It counts as binding, human. Particulars: yeast-displayed single chain trimer, 500 nM tetramer, 2 h, 4 °C, flow cytometry. An excerpt: To study the diversity of the HLA-E peptide repertoire recognized by CD94/NKG2x, we adapted an MHC yeast surface display system previously used to study class Ia MHC-restricted TCR recognition[25],[26]. In this system, peptide, Beta-2-microglobulin (β2M), and MHC heavy chain are covalently linked to each other and fused to the N-terminus of the yeast mating factor protein Aga2p (Fig. 1A, B). The HLA-E single chain trimer construct expressed well on the yeast surface, as confirmed via staining for an included hemagglutinin (HA) epitope tag and via an anti-HLA-E antibody (Fig. 1C). Since epitope tag staining assesses construct expression rather than protein fold[27]–[29], we tested peptide-HLA-E (pHLA-E) fold by staining with its cognate NK receptors. […] (Supplemental Fig. 1A, E–G), though both receptors were able to bind and enable selective enrichment of […]/HLA-E-expressing yeast using avid streptavidin-coated beads (Supplemental Fig. 1B–D).
To stain peptide-HLA-E (pHLA-E) with CD94/NKG2x tetramers, each biotinylated receptor was mixed with streptavidin coupled to AlexaFluor647 (SAV-647, made in-house) at a 5:1 ratio and incubated for 5 min on ice. Yeast were stained with 500 nM tetramer for 2 h at 4 °C in the dark with rotation. […]

Another assay deals with T1, CD94/NKG2A (Homo sapiens, UniProt P26715+Q13241).
T1 construct: The C-terminus of human NKG2A or NKG2C ectodomain was connected via a GGSGGS linker to human CD94 ectodomain; AviTag biotinylation tag (C); poly-histidine tag (C); made in house; host or cells: baculovirus, High Five (Hi5) insect cells
As to the kind of experiment: Steady-state SPR of peptide-HLA-E single chain trimers with CD94/NKG2A. It counts as binding. As to conditions: SPR with CD94/NKG2A and CD94/NKG2C, Fig. 5B; taken as lower stability of the peptide-HLA-E complex. On the procedure:
Specifically, we measured CD94/NKG2A and CD94/NKG2C affinity for HLA-E complexed with three sets of peptides. […] Third, we included […] peptide as a positive control.
Steady-state surface plasmon resonance experiments were performed with a Biacore T200 instrument. CD94/NKG2x in HBS-EP+ buffer was injected as analyte in a concentration range of 0.1 μM to 102.4 μM and flow rate of 10 μL/min at 25 °C. Data was fit with Prism 9.4 (GraphPad Software Inc; San Diego CA) to a “one site, specific binding” model. Sensorgrams are included in Supplemental Fig. 13.
For investigating WN peptides, biotinylated pMHC was immobilized at approximately 400 Response Units (RU) on a Series S SA sensor chip (Cytiva). […] CD94/NKG2A was injected followed by CD94/NKG2C.
For investigating human-derived peptides, Series S CM5 chips (Cytiva) were coupled to neutravidin and utilized. Biotinylated pMHC was immobilized at approximately 400 RU. On one chip, […] CD94/NKG2A was injected followed by CD94/NKG2C. On a second chip, PISD55-63 HLA-E SCT, AKAP6_388-396 HLA-E SCT, GTF3C5_293-301 HLA-E SCT, and reference HLA-DR401 were immobilized. CD94/NKG2C was injected followed by CD94/NKG2A. Rmax, fit values were calculated by Biacore software. Rmax, theoretical values were calculated using the analyte/ligand mass ratio (0.66) multiplied by the amount of ligand coupled to the chip.

T1 sequence (Q13241 whole entry, looked up, the tested form may be a part): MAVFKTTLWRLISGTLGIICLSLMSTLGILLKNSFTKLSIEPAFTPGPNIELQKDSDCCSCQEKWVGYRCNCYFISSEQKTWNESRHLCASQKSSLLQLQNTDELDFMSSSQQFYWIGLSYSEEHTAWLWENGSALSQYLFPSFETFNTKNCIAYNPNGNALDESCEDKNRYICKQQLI
T1 sequence (P26715 whole entry, looked up, the tested form may be a part): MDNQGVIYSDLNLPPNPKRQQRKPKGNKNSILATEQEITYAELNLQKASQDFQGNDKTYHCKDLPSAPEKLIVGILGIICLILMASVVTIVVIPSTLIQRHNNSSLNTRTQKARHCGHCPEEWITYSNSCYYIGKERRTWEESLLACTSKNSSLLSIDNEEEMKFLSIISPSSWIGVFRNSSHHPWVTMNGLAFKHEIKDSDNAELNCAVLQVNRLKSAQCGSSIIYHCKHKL

Take VMAPRTLFL [positive control]: in the assay on CD94/NKG2C, the “CD94/NKG2C tetramer and dextramer staining” value is recorded as “minimal signal”.

Consider “VNPGRSLFL [BFAR263-271, human peptide from Bifunctional apoptosis regulator]”, for which the “maximal response units (Rmax) compared to theoretical maximum” value on CD94/NKG2A is on record as “lower maximal values compared to the theoretical maximum”.

The record behind these values is paper PMC10412585 (Nature Communications, 2023).
